Where two headings read alike, the source gives them in different places.

For one experiment, the target named is T1, PI3Kα (Homo sapiens, UniProt P42336).
T1 construct: His; made in house
Kind of experiment: PI3K alpha enzyme inhibition (TR-FRET assay / Leadseeker SPA assay). Format: biochemical. Particulars: in at least one experimental run; read-out: IC50 against PI3Kα. The protocol: Compounds of the present invention were tested according to the following assays and found as inhibitors of PI3 kinases, particularly PI3Kα. The exemplified compounds were tested and found active against PI3Kα. The IC50's ranged from about 1 nM to 10 μM.
The PI3-Kinase assay has been developed and optimized from a kit produced by Upstate (Millipore). Briefly, this kit contains a biotinylated PIP3 which forms a HTRF (homogeneous time-resolved fluorescence energy transfer) complex when mixed with a Europium labeled anti-GST monoclonal antibody, a GST tagged pleckstrin homology (PH) domain, and Streptavidin-Allophycocyanin (APC). The unlabeled PIP3 produced by PI 3-Kinase activity displaces biotin-PIP3 from the complex resulting in a loss of energy transfer and thus a decrease in signal. Millipore, PI 3-Kinase (human) HTRF™ Assay, technical document associated with catalog #33-017
Compounds are serially diluted (3-fold in 100% DMSO) across a polypropylene 120 μL mother plate from column 1 to column 12 and column 13 to column 24, leaving columns 6 and 18 containing only DMSO to yield 11 concentrations for each test compound. Once titrations are made, 0.1 μL is transferred to the assay plates (Greiner 784075). This assay plate contains three controls: column 6 with DMSO, and column 18 with alternating 20 μM wortmannin and 40 μM PIP3. […] The PIP3 control is dispensed into the plate manually via a matrix pipettor, 1 μL of 200 μM PIP3 in 1× Reaction buffer to wells 18 B, D, F, H, J, L, N, P.
The PI3-Kinase assay has been developed and optimized from a kit produced by Upstate (Millipore). The assay kit (cat: 33-017) contains seven reagents: 1) 4× Reaction Buffer, 2) PIP2 (1 mM), 3) Stop A, 4) Stop B, 5) Detection Mix A, 6) Detection Mix B, 7) Detection Mix C. In addition the following items were obtained or purchased, PI3Kinase (prepared in-house), 4× PI3K Detection Buffer (Millipore), dithiothreitol (Sigma, D-5545), Adenosine-5′-triphosphate (ATP, Sigma, A-6419), PIP3 (1,2-dioctanoyl-sn-glycero-3-[phosphoinositil-3,4,5-triphosphate]tetraammonium salt (Avanti polar lipids, 850186P), DMSO (Sigma, 472301), Wortmannin (Sigma, W-1628).
Prepare 1× PI3Kinase Reaction Buffer by diluting stock 1:4 with de-ionized water, freshly prepared DTT is added at a final concentration of 5 mM on the day of use. Enzyme addition and compound preincubation is initiated by the addition of 2.5 μL of 2× enzyme solution, PI3K alpha in 1× reaction buffer, to all wells using a Multidrop Combi. Plates are incubated at room temperature for 15 minutes. Substrate addition and reaction initiation is completed by the addition of 2.5 μL of 2× substrate solution, PIP2 and ATP in 1× reaction buffer, to all wells using a Multidrop Combi. […] Incubate one hour, evaluate the HTRF signal on the Envision plate reader. […]

For another experiment, the target named is CK2 protein kinase (Homo sapiens, UniProt P68400). Particulars: background statement; cited from earlier work.
Sequence of CK2 protein kinase (P68400 whole entry): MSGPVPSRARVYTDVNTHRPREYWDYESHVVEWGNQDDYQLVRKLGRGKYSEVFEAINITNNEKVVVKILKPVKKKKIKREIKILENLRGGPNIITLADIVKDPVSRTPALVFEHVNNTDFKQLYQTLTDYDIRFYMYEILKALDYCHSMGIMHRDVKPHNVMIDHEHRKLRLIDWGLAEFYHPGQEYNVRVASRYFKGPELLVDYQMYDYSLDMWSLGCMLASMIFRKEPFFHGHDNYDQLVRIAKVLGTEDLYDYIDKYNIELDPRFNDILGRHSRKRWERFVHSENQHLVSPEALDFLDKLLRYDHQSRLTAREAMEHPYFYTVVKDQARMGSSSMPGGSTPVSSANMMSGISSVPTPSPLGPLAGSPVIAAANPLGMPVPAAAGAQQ
The next experiment relates to Class I PI3-kinases. The following applies: cited from earlier work.

T1 sequence (P42336 whole entry): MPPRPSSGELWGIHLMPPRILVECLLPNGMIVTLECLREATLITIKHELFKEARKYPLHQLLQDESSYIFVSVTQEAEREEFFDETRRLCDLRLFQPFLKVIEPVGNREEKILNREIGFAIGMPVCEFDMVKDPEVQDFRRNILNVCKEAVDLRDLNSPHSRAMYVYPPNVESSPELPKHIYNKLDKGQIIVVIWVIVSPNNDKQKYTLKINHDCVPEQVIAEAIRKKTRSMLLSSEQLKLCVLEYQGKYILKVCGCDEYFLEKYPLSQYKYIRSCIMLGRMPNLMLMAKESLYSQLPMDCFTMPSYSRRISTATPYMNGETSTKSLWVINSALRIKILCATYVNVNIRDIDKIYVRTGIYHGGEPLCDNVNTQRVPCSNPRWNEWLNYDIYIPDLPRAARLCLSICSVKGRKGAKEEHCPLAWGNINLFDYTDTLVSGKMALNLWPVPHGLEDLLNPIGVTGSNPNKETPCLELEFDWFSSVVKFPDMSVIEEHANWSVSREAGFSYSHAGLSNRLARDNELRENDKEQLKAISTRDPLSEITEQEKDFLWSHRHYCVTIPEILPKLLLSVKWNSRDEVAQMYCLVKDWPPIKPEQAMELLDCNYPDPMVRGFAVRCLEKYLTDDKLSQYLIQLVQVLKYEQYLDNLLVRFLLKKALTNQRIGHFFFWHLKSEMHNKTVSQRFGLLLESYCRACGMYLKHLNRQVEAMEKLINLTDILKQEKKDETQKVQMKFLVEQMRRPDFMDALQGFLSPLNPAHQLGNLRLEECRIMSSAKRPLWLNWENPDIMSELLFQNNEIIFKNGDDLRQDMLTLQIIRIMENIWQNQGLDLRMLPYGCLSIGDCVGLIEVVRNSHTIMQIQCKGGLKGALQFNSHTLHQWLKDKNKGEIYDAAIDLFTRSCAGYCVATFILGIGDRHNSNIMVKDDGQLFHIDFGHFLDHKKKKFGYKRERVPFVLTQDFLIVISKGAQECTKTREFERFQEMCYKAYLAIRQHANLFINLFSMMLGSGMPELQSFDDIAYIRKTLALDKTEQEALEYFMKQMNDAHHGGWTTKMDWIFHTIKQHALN
T1 sequence (P27986 whole entry partner): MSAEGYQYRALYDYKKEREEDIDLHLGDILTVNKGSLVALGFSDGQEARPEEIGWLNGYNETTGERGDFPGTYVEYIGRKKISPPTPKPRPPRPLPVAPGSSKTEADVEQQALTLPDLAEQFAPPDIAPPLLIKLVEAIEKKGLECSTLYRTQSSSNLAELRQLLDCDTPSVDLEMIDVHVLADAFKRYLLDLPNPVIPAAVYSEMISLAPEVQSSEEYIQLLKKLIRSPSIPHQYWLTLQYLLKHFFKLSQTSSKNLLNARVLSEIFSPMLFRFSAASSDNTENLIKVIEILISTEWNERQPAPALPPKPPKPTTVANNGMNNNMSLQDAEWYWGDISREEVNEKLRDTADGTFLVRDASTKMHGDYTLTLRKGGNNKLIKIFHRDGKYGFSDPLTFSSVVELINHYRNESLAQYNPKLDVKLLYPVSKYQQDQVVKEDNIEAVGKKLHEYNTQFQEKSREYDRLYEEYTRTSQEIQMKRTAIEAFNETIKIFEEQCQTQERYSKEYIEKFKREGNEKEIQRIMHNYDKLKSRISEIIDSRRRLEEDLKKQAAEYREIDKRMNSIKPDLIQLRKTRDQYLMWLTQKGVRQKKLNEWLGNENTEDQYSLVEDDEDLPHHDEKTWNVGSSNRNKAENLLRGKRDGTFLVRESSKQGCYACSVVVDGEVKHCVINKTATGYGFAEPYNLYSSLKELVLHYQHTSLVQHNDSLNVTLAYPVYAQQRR

Turning to `O=S(=O)(Nc1cc(-c2cn[nH]c2)cnc1Cl)c1ccccc1` [Example 22, N-[2-chloro-5-(1H-pyrazol-4-yl)-3-pyridinyl]benzenesulfonamide], the IC50 (usually the midpoint of a concentration-inhibition curve) on PI3Kα came out at 316 nM.
For `O=S(=O)(Nc1cc(-c2ccc3ccccc3c2)cnc1Cl)c1ccccc1` [Example 27, N-[2-chloro-5-(2-naphthalenyl)-3-pyridinyl]benzenesulfonamide], on PI3Kα, the IC50 turned out to be 631 nM.
The same measure, in the same setting: with `CNc1ncc(-c2cnc(Cl)c(NS(=O)(=O)c3ccccc3)c2)cn1` [Example 29, N-{2-chloro-5-[2-(methylamino)-5-pyrimidinyl]-3-pyridinyl}benzenesulfonamide] the figure was 100 nM.
On the same count and under the same terms, the same measure for `O=S(=O)(Nc1cc(-c2ccc3nccn3c2)cnc1Cl)c1ccccc1` [Example 35, N-(2-chloro-5-imidazo[1,2-a]pyridin-6-yl-3-pyridinyl)benzenesulfonamide]: 13 nM.
For `O=c1cc(N2CCOCC2)oc2c(-c3ccccc3)cccc12` [LY294002], the concentration for half-maximal inhibition (IC50) was 5000 to 10000 nM at CK2 protein kinase and 15000 to 20000 nM with Class I PI3-kinases (Fruman et al. 1998, read-out: IC50 against each of these PI3-kinases).
For `COC[C@H]1OC(=O)c2coc3c2[C@@]1(C)C1=C(C3=O)[C@@H]2CCC(=O)[C@@]2(C)C[C@H]1OC(C)=O` [wortmannin], in the experiment with Class I PI3-kinases (wortmannin, background statement, read-out: IC50 against each of the various Class I PI3-kinases), the 50% inhibitory concentration (IC50) was 1 to 10 nM.

These data come from patent US20100311736A1, “PYRIDOSULFONAMIDE DERIVATIVES AS P13 KINASE INHIBITORS” (GlaxoSMithKline LLC, priority 2007, published 2010).
